Results reported in patent publication US11458189B2, “Cytoprotective drugs” (BALMES TRANSPLANTATION, priority 2017, dated 2022).
Starred links: 1 amine or outer side, 2 acyl side, 3 side chain; linkers in the order of their positions; H or OH if unused. Positions of bridges follow the written chain, without caps; N, C: chain ends. Non-standard residues stand in square brackets, D forms with d. Residues, ends and D or L forms follow the SMILES beside them. *: point of attachment. hTyr(3S-OH,4S-OH,3'-OSO3H) = N[C@H](C(=O)O)[C@H](O)[C@@H](O)c1ccc(O)c(OS(=O)(=O)O)c1; Orn(4R-OH,5R-OH) = O=C([C@H](C[C@@H](O)[C@@H](O)N[*:3])N[*:1])[*:2]; Pro(3S-OH,4S-Me) = C[C@H]1CN[C@H](C(=O)O)[C@H]1O; X1 = CCCCCOc1ccc(-c2cc(-c3ccc(C(=O)*)cc3)no2)cc1; Gln(3R-OH) = NC(=O)C[C@@H](O)[C@H](N)C(=O)O; Hyp = O=C(O)[C@@H]1C[C@@H](O)CN1

Tested on: Human Hepatic Sinusoidal Endothelial Cells (HHSEC)
Test: Oxygen and glucose deprivation followed by replenishment, cell survival (calcein AM), HHSEC
Type: cell-based
Experimental: Anidulafungin and micafungin were tested on Human Renal Glomerular Endothelial Cells (HRGEC, Innoprot P10665), on Human Renal Proximal Tubular Epithelial Cells (HRPTEpiC, Innoprot P10662), on Human Astrocytes (HA, caltag SC-1800), on Human Cardiac Microvascular Endothelial Cells (HCMEC, Caltag SC-6000), on Human Hepatic Sinusoidal Endothelial Cells (HHSEC, Caltag SC-5000), on Rat Primary Kidney Glomerular Endothelial cells (Cellbiologics, RN-6014G) and on Bovine Brain Microvascular Endothelial Cells (BBMEC, Caltag SC-B100).
In a first phase, these isolated, purified and cryopreserved cells are thawed and multiplied according to the supplier's recommendations in T75 or T175 flasks pre-coated with 2 μg of fibronectin/[…] (CORNING) for HRGEC, HCMEC, HHSEC and BBMEC, or 2 μg poly-L-lysin/cm^2 (Caltag SC-0403) for HRPTEpiC and HA, or 15 mL/flask 175 cm^2 gelatin-based solution (Cellbiologics) in the presence of endothelial cell supplemented growth medium ECM (P60104, INNOPROT, Caltag, SC-1001) for HRGEC, HCMEC, HHSEC, RPKGEC or BBMEC, or astrocyte cell supplemented growth medium AM (Caltag SC-1801) for HA or epithelial cell supplemented growth medium EpiCM (P60106, INNOPROT) for HRPTEpiC, at 37° C. under 5% CO2 and saturated humidity until their confluency. They are then harvested by trypsinization according to the method described by the supplier for exactly 5 minutes and then reseeded in new flasks a maximum of three times.
To carry out the oxygen and glucose deprivation test followed by their replenishment, the cells will be seeded in 96-well black plates with transparent flat bottom (GREINER). Once a sufficient number of cells has been obtained to allow seeding of 2000 to 15000 cells per well of 96-well plates depending on the cell type, the cells are seeded in these 96-well plates previously coated with an extracellular matrix as listed above for the flasks. The cells are cultured for 5 to 8 days according to the cell type, in the presence of the same growth medium as in the flask as described above except for HRGEC and HRPTEpiC for which DMEM (DUTSCHER) with 1 g/L of supplemented glucose is used, at 37° C. under 5% CO2 and saturated humidity to obtain confluency.
On the first day of oxygen and glucose deprivation, (5th, 6th, 7th or 8th day of culture), the culture conditions are drastically changed. The medium of all plates is removed and replaced by DMEM (DUTSCHER) medium without glucose and supplemented only with 1% penicillin-streptomycin (DUTSCHER). Anidulafungin or micafungin dissolved in dimethyl sulfoxide (DMSO) is then added to each well at the desired concentration, resulting in a maximum of 1% DMSO, and the plates are placed under hypoxia at <1% 02 and 5% CO2 at 37° C. for 24 hours of culture. Each compound was tested in a concentration range.
After 24 hours, the growth medium is changed and replaced by a richer medium, DMEM (DUTSCHER) at 1 g/L glucose and 2% FBS (INNOPROT) and 1% penicillin-streptomycin (DUTSCHER). These media will have been pre-equilibrated at 37° C. in advance. The cells are then returned to culture at 37° C. under 20% 02 and 5% CO2 for 22h.
After 22 hours of reoxygenation, the potential protective effect of anidulafungin or micafungin is measured by a cell viability test using calcein AM (CORNING), which is a dye substrate. The calcein AM can easily cross the cell membrane of the viable cells. The AM ester groups mask the part of the molecule that chelates calcium. Once inside the cells, the (non-fluorescent) calcein AM is hydrolyzed to (fluorescent) calcein by endogenous esterases. The resulting calcein molecule binds to calcium inside the cell and remains trapped inside the cell. These molecules emit strong green fluorescence when subjected to […] of a particular wavelength (495 nm). Since dead cells lack esterase activity, only living cells are labelled.
This cell viability test is performed in two steps. […]

[1] = [Micafungin] log μM 0 (first line printed 0, r12)
[2] = [Micafungin] log μM 0 (second line printed 0, r14)

CCCCCOc1ccc(-c2cc(-c3ccc(C(=O)N[C@H]4C[C@@H](O)[C@@H](O)NC(=O)[C@@H]5[C@@H](O)[C@@H](C)CN5C(=O)[C@H]([C@H](O)CC(N)=O)NC(=O)[C@H]([C@H](O)[C@@H](O)c5ccc(O)c(OS(=O)(=O)O)c5)NC(=O)[C@@H]5C[C@@H](O)CN5C(=O)[C@H]([C@@H](C)O)NC4=O)cc3)no2)cc1 [Micafungin, {5-[(1S,2S)-2-[(3S,6S,9S,11R,15S,18S,20R,21R,24S,25S,26S)-3-[(1R)-2-carbamoyl-1-hydroxyethyl]-11,20,21,25-tetrahydroxy-15-[(1R)-1-hydroxyethyl]-26-methyl-2,5,8,14,17,23-hexaoxo-18-[(4-{5-[4-(pentyloxy)phenyl]-1,2-oxazol-3-yl}benzene)amido]-1,4,7,13,16,22-hexaazatricyclo[22.3.0.0]heptacosan-6-yl]-1,2-dihydroxyethyl]-2-hydroxyphenyl}oxidanesulfonic acid] (X1-[Orn(4R-OH,5R-OH)]T[Hyp][hTyr(3S-OH,4S-OH,3'-OSO3H)][Gln(3R-OH)][Pro(3S-OH,4S-Me)]; lactam 1-C)
Globalfluo assay 1 [1]: 2600496 arbitrary units | Globalfluo assay 2 [1]: 2592730 arbitrary units | Globalfluo assay 3 [1]: 2666315 arbitrary units | Mean globalfluo [1]: 2619847 arbitrary units | Survival rate (%) [1]: 0% | Globalfluo assay 1 [2]: 3063920 arbitrary units | Globalfluo assay 2 [2]: 2647280 arbitrary units | Globalfluo assay 3 [2]: 2608353 arbitrary units | Mean globalfluo [2]: 2773184 arbitrary units | Survival rate (%) [2]: 1% | Globalfluo assay 1 ([Micafungin] log μM 0.4771213): 2619032 arbitrary units | Globalfluo assay 2 ([Micafungin] log μM 0.4771213): 2696453 arbitrary units | Globalfluo assay 3 ([Micafungin] log μM 0.4771213): 2858592 arbitrary units | Mean globalfluo ([Micafungin] log μM 0.4771213): 2724692 arbitrary units | Survival rate (%) ([Micafungin] log μM 0.4771213): 1% | Globalfluo assay 1 ([Micafungin] log μM 0.7781513): 2942319 arbitrary units | Globalfluo assay 2 ([Micafungin] log μM 0.7781513): 3052699 arbitrary units | Globalfluo assay 3 ([Micafungin] log μM 0.7781513): 2975927 arbitrary units | Mean globalfluo ([Micafungin] log μM 0.7781513): 2990315 arbitrary units | Survival rate (%) ([Micafungin] log μM 0.7781513): 2% | Globalfluo assay 1 ([Micafungin] log μM 0.90309): 2800146 arbitrary units | Globalfluo assay 2 ([Micafungin] log μM 0.90309): 3162662 arbitrary units | Globalfluo assay 3 ([Micafungin] log μM 0.90309): 3203256 arbitrary units | Mean globalfluo ([Micafungin] log μM 0.90309): 3055355 arbitrary units | Survival rate (%) ([Micafungin] log μM 0.90309): 3% | Globalfluo assay 1 ([Micafungin] log μM 1): 3210890 arbitrary units | Globalfluo assay 2 ([Micafungin] log μM 1): 3369543 arbitrary units | Globalfluo assay 3 ([Micafungin] log μM 1): 2819931 arbitrary units | Mean globalfluo ([Micafungin] log μM 1): 3133455 arbitrary units | Survival rate (%) ([Micafungin] log μM 1): 3% | Globalfluo assay 1 ([Micafungin] log μM 1.079181): 3383806 arbitrary units | Globalfluo assay 2 ([Micafungin] log μM 1.079181): 3457745 arbitrary units | Globalfluo assay 3 ([Micafungin] log μM 1.079181): 3493598 arbitrary units | Mean globalfluo ([Micafungin] log μM 1.079181): 3445050 arbitrary units | Survival rate (%) ([Micafungin] log μM 1.079181): 5% | Globalfluo assay 1 ([Micafungin] log μM 1.176091): 3454603 arbitrary units | Globalfluo assay 2 ([Micafungin] log μM 1.176091): 3676802 arbitrary units | Globalfluo assay 3 ([Micafungin] log μM 1.176091): 3618017 arbitrary units | Mean globalfluo ([Micafungin] log μM 1.176091): 3583141 arbitrary units | Survival rate (%) ([Micafungin] log μM 1.176091): 6% | Globalfluo assay 1 ([Micafungin] log μM 1.30103): 3383992 arbitrary units | Globalfluo assay 2 ([Micafungin] log μM 1.30103): 2974781 arbitrary units | Globalfluo assay 3 ([Micafungin] log μM 1.30103): 3188414 arbitrary units | Mean globalfluo ([Micafungin] log μM 1.30103): 3182396 arbitrary units | Survival rate (%) ([Micafungin] log μM 1.30103): 3% | Globalfluo assay 1 ([Micafungin] log μM −2): 2651037 arbitrary units | Globalfluo assay 2 ([Micafungin] log μM −2): 2880244 arbitrary units | Globalfluo assay 3 ([Micafungin] log μM −2): 2908835 arbitrary units | Mean globalfluo ([Micafungin] log μM −2): 2813372 arbitrary units | Survival rate (%) ([Micafungin] log μM −2): 1%
